Columns and labels:
HeLa = assay: Cytotoxicity assay, resazurin, 72 h, HeLa; format: cell-based; details: Homo sapiens, cervical cancer
Procedure: (§1) The cytotoxicity screening tests were made with T-lymphoblastic leukemia (CCRF-CEM), breast adenocarcinoma (MCF7), cervical carcinoma (HeLa), and malignant melanoma (G-361) cancer cell lines (the European Collection of Authenticated Cell Cultures, Salisbury, U.K.). Human foreskin fibroblasts (BJ) were used as reference cells, and they were obtained from the American Type Culture Collection (ATCC, Manassas, Virginia). The cells were cultured in DMEM (Dulbecco’s modified Eagle’s medium) or RPMI 1640 (CCRF-CEM). Media used were supplemented with 10% fetal serum, L-glutamine (2 mM), and 1% penicillin–streptomycin mixture (all from Sigma-Aldrich). The cell lines were maintained under standard cell culture conditions at 37 °C and 5% CO2 in a humid environment. Cells were subcultured two or three times a week using the standard trypsinization procedure.
(§2) The cytotoxicity assays were performed according to the standard experimental procedure published earlier. The cell viability was measured after 72 h using resazurin (Sigma-Aldrich). Western blotting and caspase activity assay were performed as described earlier. ,

G-361 = assay: Cytotoxicity assay, resazurin, 72 h, G-361; format: cell-based; details: Homo sapiens, malignant melanoma
Procedure: as §1, §2

MCF7 = assay: Cytotoxicity assay, resazurin, 72 h, MCF7; format: cell-based; details: Homo sapiens, breast adenocarcinoma
Procedure: as §1, §2

[1] = Cytotoxicity assay, resazurin, 72 h, normal fibroblasts BJ; format: cell-based; details: human, BJ normal foreskin fibroblasts, normal foreskin fibroblast
Procedure: as §1, §2

CCRF-CEM = assay: Cytotoxicity assay, resazurin, 72 h, CCRF-CEM; format: cell-based; details: Homo sapiens, T-lymphoblastic leukemia
Procedure: as §1, §2

[2] = Nanoassembly by UV spectroscopy and TEM in methanol and water; format: physicochemical; details: UV spectra and TEM
Procedure: UV spectra were measured on a Specord 210 spectrometer (Jena Analytical, Germany) in the wavelength range of 200–400 nm. The stock solutions of the studied compounds (9b, 13b, 16b, or 17b; 0.003 mmol) were prepared in methanol (2 mL) at a concentration of 1 mg·mL^–1. A series of water/methanol mixtures were then prepared starting from a water/methanol ratio of 0/100 up to 100/0 in 20% steps. The stock solutions of the studied compounds (0.15 mL) were added separately to each vial containing water/methanol mixtures (3 mL), and the UV spectra were recorded in the wavelength range of 200–400 nm. Aliquots of the stock solutions of the studied compounds (160 μL) were used to prepare samples in the given ratios of water/methanol (0:100 to 100:0 in the 20% steps) mixtures. The UV spectra were recorded in the time 0, 1, 2, 3, and 4 h, followed by a subsequent recording after each 24 h during 7 days (Supporting Information, Figure S33). Note: All target compounds were subjected to this type of investigation; however, self-assembly characteristics were detected by measuring the UV spectra only with 9b, 13b, 16b, and 17b.
Transmission electron microscopy (TEM) was performed with a Tecai G2 Spirit Twin 12 microscope (FEI, Brno, Czech Republic). The samples for TEM were prepared by the fast-drying method, both in methanol and in water. , The studied compounds (2 μL of each one) were dissolved in methanol, and if studies should have been made in water, the compounds were first dissolved in methanol, and then water was added to make the final methanol/water (1:10) solutions. The solutions of compounds in either solvent were made to get the final concentrations of c = 10 mg·mL^–1. Then the solutions were dropped onto a standard carbon-coated copper TEM grid (300 mesh). After 2 min, the rest of the solution was removed by touching the bottom of the grid with a thin strip of filter paper. This fast removal of the solvent, also referred to as “fast-drying” above, is necessary to minimize drying artifacts, as documented in previous studies. , The fast-dried specimens were left to dry completely at an ambient temperature. […] The morphology of selected samples was verified by additional TEM experiments, which employed the samples that were negatively stained with uranyl acetate (UO2Ac2). The negative staining was performed as follows: A small volume (2 μL) of UO2Ac2 (2 wt % of aqueous solution) was dropped on the selected dried specimens from the previous step (i.e., on the dried specimens on the carbon-coated TEM grids). After 1 min, the excess of UO2Ac2 solution was removed (by touching the bottom of the grid with filter paper, like in the previous step). […]

[3] = Solubility in methanol and water; format: physicochemical

Row | solubility [3] | SMILES | IC50 (HeLa) [µM] | IC50 (G-361) [µM] | IC50 (MCF7) [µM] | IC50 at 72 h [1] [µM] | IC50 (CCRF-CEM) [µM] | nanoassembly [2]
1 | – | CC1(C)CC[C@]2(C(=O)O)CC[C@]3(C)C(=CC[C@@H]4[C@@]5(C)CC[C@H](O)C(C)(C)[C@@H]5CC[C@]43C)[C@@H]2C1 [Compound 1a, (3β)-3-hydroxyolean-12-en-28-oic-acid, reference compound] | > 50 | > 50 | > 50 | > 50 | > 50 | –
2 | – | C[C@H]1[C@H](C)CC[C@]2(C(=O)O)CC[C@]3(C)C(=CC[C@@H]4[C@@]5(C)CC[C@H](O)C(C)(C)[C@@H]5CC[C@]43C)[C@H]12 [Compound 1b, (3β)-3-hydroxy-urs-12-en-28-oic-acid, reference compound] | 12.6 ± 2.7 | 9.7 ± 0.3 | 16.2 ± 0.5 | 15.6 ± 0.6 | 13.2 ± 2.7 | –
3 | – | CC(=O)O[C@H]1CC[C@]2(C)[C@H]3CC=C4[C@@H]5CC(C)(C)CC[C@]5(C(=O)NCC(=O)O)CC[C@@]4(C)[C@]3(C)CC[C@H]2C1(C)C [Compound 3a] | 35.8 ± 3.4 | 43.1 ± 1.1 | 46.9 ± 4.4 | > 50 | 41 ± 5.9 | –
4 | – | CC(=O)O[C@H]1CC[C@]2(C)[C@H]3CC=C4[C@@H]5[C@@H](C)[C@H](C)CC[C@]5(C(=O)NCC(=O)O)CC[C@@]4(C)[C@]3(C)CC[C@H]2C1(C)C [Compound 3b] | – | 38.7 ± 4.9 | 49.7 ± 0.5 | > 50 | 43.3 ± 5.4 | –
5 | – | CC(=O)O[C@H]1CC[C@]2(C)[C@H]3CC=C4[C@@H]5CC(C)(C)CC[C@]5(C(=O)NCC(=O)Nc5cc6cccnc6c6ncccc56)CC[C@@]4(C)[C@]3(C)CC[C@H]2C1(C)C [Compound 4a] | 0.3 | 0.4 | 0.7 ± 0.1 | 0.8 ± 0.1 | 0.6 ± 0.1 | –
6 | – | CC(=O)O[C@H]1CC[C@]2(C)[C@H]3CC=C4[C@@H]5[C@@H](C)[C@H](C)CC[C@]5(C(=O)NCC(=O)Nc5cc6cccnc6c6ncccc56)CC[C@@]4(C)[C@]3(C)CC[C@H]2C1(C)C [Compound 4b] | 0.4 ± 0.1 | 0.5 ± 0.1 | 0.9 ± 0.3 | 1.5 ± 0.5 | 0.6 ± 0.2 | –
7 | – | CC1(C)CC[C@]2(C(=O)NCC(=O)Nc3cc4cccnc4c4ncccc34)CC[C@]3(C)C(=CC[C@@H]4[C@@]5(C)CC[C@H](O)C(C)(C)[C@@H]5CC[C@]43C)[C@@H]2C1 [Compound 5a] | 0.6 ± 0.2 | 0.5 ± 0.1 | 0.4 ± 0.1 | 1.5 ± 0.1 | 0.3 ± 0.1 | –
8 | – | C[C@H]1[C@H](C)CC[C@]2(C(=O)NCC(=O)Nc3cc4cccnc4c4ncccc34)CC[C@]3(C)C(=CC[C@@H]4[C@@]5(C)CC[C@H](O)C(C)(C)[C@@H]5CC[C@]43C)[C@H]12 [Compound 5b] | 0.6 ± 0.1 | 0.5 ± 0.1 | 0.5 | 1.6 ± 0.1 | 0.6 ± 0.1 | –
9 | – | CC(=O)O[C@H]1CC[C@]2(C)[C@H]3CC=C4[C@@H]5CC(C)(C)CC[C@]5(C(=O)NCC(=O)Nc5ccc(N)cc5)CC[C@@]4(C)[C@]3(C)CC[C@H]2C1(C)C [Compound 7a] | 10.9 ± 1.9 | 8.5 ± 0.1 | 12 ± 2.5 | 18.5 ± 2.6 | 17.1 ± 1.9 | –
10 | – | CC(=O)O[C@H]1CC[C@]2(C)[C@H]3CC=C4[C@@H]5[C@@H](C)[C@H](C)CC[C@]5(C(=O)NCC(=O)Nc5ccc(N)cc5)CC[C@@]4(C)[C@]3(C)CC[C@H]2C1(C)C [Compound 7b] | 12.5 ± 2.3 | 11.2 ± 0.4 | 14.9 ± 2.2 | 36.1 ± 4.5 | 18.1 ± 0.4 | –
11 | – | CC1(C)CC[C@]2(C(=O)NCC(=O)Nc3ccc(N)cc3)CC[C@]3(C)C(=CC[C@@H]4[C@@]5(C)CC[C@H](O)C(C)(C)[C@@H]5CC[C@]43C)[C@@H]2C1 [Compound 9a] | 28.7 ± 1.8 | 18.6 ± 2.3 | 17 ± 2.1 | 37.9 ± 6.1 | 31.7 ± 2.3 | showed no nanoassembly
12 | soluble both in methanol and in water | C[C@H]1[C@H](C)CC[C@]2(C(=O)NCC(=O)Nc3ccc(N)cc3)CC[C@]3(C)C(=CC[C@@H]4[C@@]5(C)CC[C@H](O)C(C)(C)[C@@H]5CC[C@]43C)[C@H]12 [Compound 9b] | 30 ± 2.8 | 23.3 ± 1 | 16.4 ± 3.7 | 35.2 ± 1.3 | 25.8 ± 0.4 | displayed nanoassembly in methanol and water
13 | – | CC(=O)O[C@H]1CC[C@]2(C)[C@H]3CC=C4[C@@H]5CC(C)(C)CC[C@]5(C(=O)NCC(=O)Nc5cccc(N)c5)CC[C@@]4(C)[C@]3(C)CC[C@H]2C1(C)C [Compound 11a] | 41.9 ± 4.7 | 38.6 ± 1.3 | 39.5 ± 1.5 | > 50 | > 50 | –
14 | – | CC(=O)O[C@H]1CC[C@]2(C)[C@H]3CC=C4[C@@H]5[C@@H](C)[C@H](C)CC[C@]5(C(=O)NCC(=O)Nc5cccc(N)c5)CC[C@@]4(C)[C@]3(C)CC[C@H]2C1(C)C [Compound 11b] | 14.6 ± 2.7 | 15 ± 0.8 | 15.8 ± 3.2 | 44.8 ± 0.6 | 32.6 ± 8.7 | –
15 | – | CC1(C)CC[C@]2(C(=O)NCC(=O)Nc3cccc(N)c3)CC[C@]3(C)C(=CC[C@@H]4[C@@]5(C)CC[C@H](O)C(C)(C)[C@@H]5CC[C@]43C)[C@@H]2C1 [Compound 13a] | 19.9 ± 1 | 19.5 ± 2.1 | 14.2 ± 1.3 | 45.7 ± 2.2 | 29.4 ± 4.4 | showed no nanoassembly
16 | soluble both in methanol and in water | C[C@H]1[C@H](C)CC[C@]2(C(=O)NCC(=O)Nc3cccc(N)c3)CC[C@]3(C)C(=CC[C@@H]4[C@@]5(C)CC[C@H](O)C(C)(C)[C@@H]5CC[C@]43C)[C@H]12 [Compound 13b] | 26.7 ± 2.7 | 14.4 ± 2.9 | 12.8 ± 2.5 | 38.5 ± 0.8 | 22.3 ± 2.3 | displayed nanoassembly in methanol and water

Source: article PMC12120625, “Cytotoxicity and Nanoassembly Characteristics of Aromatic Amides of Oleanolic Acid and Ursolic Acid” (ACS Omega, 2025)
